Test results reported in patent US5091389A, “Lipophilic macrolide useful as an immunosuppressant” (Merck & Co., Inc., priority 1991, dated 1992).

Legend:
[1] = system: heart, kidney, bowel, pancreas or other transplantation; conditions: in combination with Cyclosporin A; cited from earlier work
[2] = system: heterotopic heart allografts; conditions: rats given heterotopic heart allografts, cited from earlier work
mouse T cells = assay: Inhibition of T-cell proliferation (mouse T cells stimulated with ionomycin + PMA, tritiated-thymidine incorporation); assay type: cell-based; conditions: for reversal of inhibitory activity by exogenous IL-2: exogenous IL-2 (50 units/ml); for reversal of inhibitory activity by exogenous IL-2 / Percent Inhibition of Proliferation: mouse T cells
From the text: Biological activity as a immunosupressant can be measured in terms of inhibition of T-cell proliferation.

immune response = conditions: rats; cited from earlier work

Compound	effect on amount of Cyclosporin A required [1]	effect on nephrotoxicity of Cyclosporin A [1]	toxicity ([2]; compared with what would be anticipated with FK-506)	immunosuppression in heart allograft recipients [2]	inhibition at 1.1 µM (mouse T cells; Mus musculus, T-cell, read-out: inhibited the proliferation) [%]	reversal of inhibitory activity by exogenous IL-2 (mouse T cells; ionomycin + PMA)	inhibition of the response to allergic encephalomyelitis, adjuvant-induced arthritis and antibody production (immune response)	Percent Inhibition of Proliferation (mouse T cells; 0.001 μM, ionomycin + PMA) [%]	Percent Inhibition of Proliferation (mouse T cells; 0.01 μM, ionomycin + PMA) [%]	Percent Inhibition of Proliferation (mouse T cells; 0.12 μM, ionomycin + PMA) [%]	Percent Inhibition of Proliferation (mouse T cells; 1.2 μM, ionomycin + PMA) [%]	Percent Inhibition of Proliferation (mouse T cells; 11.2 μM, ionomycin + PMA) [%]	inhibition of proliferation of mouse T cells (qualitative) (mouse T cells; ionomycin + PMA)
CO[C@H]1C[C@@H]2CC[C@@H](C)[C@@](O)(O2)C(=O)C(=O)N2CCCC[C@H]2C(=O)O[C@H]([C@H](C)C[C@@H]2CC[C@@H](O)[C@H](OC)C2)CC(=O)[C@H](C)/C=C(\C)[C@@H](O)[C@@H](OC)C(=O)[C@H](C)C[C@H](C)/C=C/C=C/C=C/1C [rapamycin]	reducing the amount of Cyclosporin A required to produce its immunosupressive effect	effectively reducing the nephrotoxicity inherent in treatment with Cyclosporin A	less toxicity was said to be experienced than would be anticipated with FK-506	immunosuppressive in rats given heterotopic heart allografts	65	not reversed by exogenous IL-2	inhibiting the response to allergic encephalomyelitis,adjuvant-induced arthritis and antibody production in rats	–	–	–	–	–	–
COC1CC2CCC(C)C(O)(O2)C(=O)C(=O)N2CCCCC2C(=O)OC(C(C)CC2CCC(O)C(OC)C2)CC(=O)C(C)/C=C(\C)C(O)C(O)C(=O)C(C)CC(C)/C=C/C=C/C=C/1C (centres unmarked) [29-desmethyl-rapamycin, 29-desmethyl rapamycin]	–	–	–	–	–	not reversed by exogenous IL-2	–	7	32	49	59	88	found to inhibit the proliferation of mouse T cells
